Key:
mGluR5 receptor (pig) = molecular target: T1, mGluR5 receptor (pig) (Sus scrofa, UniProt I3LUI7); test: [3H]-MPEP binding in the mGluR5 receptor binding assay (pig brain homogenate); settings: pig brain homogenate; 5 nM [3H]-MPEP
T1 construct: 450 μg of protein from brain homogenate is incubated; from tissue; host or cells: pig brain hemispheres without medulla, cerebellum and pons
Protocol: I. Method for Determining the Inhibition of [^3H]-MPEP Binding in the mGluR5 Receptor Binding Assay
Pig brain homogenate is produced by homogenisation (Polytron Pt 3000, Kinematica AG, 10,000 revolutions per minute for 90 seconds) of pig brain hemispheres without medulla, cerebellum and pons in a buffer of pH 8.0 (30 mM Hepes, Sigma, order number H3375+1 tablet Complete Roche Diagnostics, order number 1836145 made up to 100 ml) in a ratio of 1:20 (brain weight/volume) and differential centrifugation at 900×g and 40,000×g. 450 μg of protein from brain homogenate is incubated in each case in 250 μl incubation batches in 96-well microtitre plates with 5 nM ^3[H]-MPEP (Tocris, order number R1212) (MPEP=[…]) and the compounds to be investigated ([…]) in the buffer (as above) at room temperature for 60 min.
The batches are then filtered with the assistance of a Brandel Cell Harvester (Brandel, Robotic 9600 model) on Unifilter plates with glass filter mats (Perkin Elmer, order number 6005177) and then washed 3 times with buffer (as above) using 250 μl per sample. The filter plates are then dried for 60 min at 55° C. Then 30 μl of Ultima Gold™ scintillating material (Packard BioScience, order number 6013159) is added per well and after 3 hours the samples are measured using the β counter (Microbeta, Perkin Elmer). Nonspecific binding is determined by the addition of 10 μM MPEP (Tocris, order number 1212).

mGluR5 receptor (human) = molecular target: T2, mGluR5 receptor (human) (Homo sapiens, UniProt P41594); test: Functional Ca2+ influx assay in the mGluR5 receptor assay (CHO-hmGluR5 cells, DHPG); type: cell-based; settings: 10 μM DHPG, Ki=IC50/(1+(AGconc/EC50))
T2 construct: host or cells: CHO cells (CHO-hmGluR5), expression induced with doxycycline
Text: II. Method for Determining Ca^2+ Influx in the mGluR5 Receptor Assay
An agonistic and/or antagonistic substance action on the mGluR5 receptor of the rat species may be determined with the following assay. According to this assay, intracellular Ca^2+ release is quantified after activation of the mGluR5 receptor with the assistance of a Ca^2+-sensitive dye (type Fluo-4, Molecular Probes Europe BV, Leiden, Netherlands) in a FlexStation (Molecular Devices, Sunnyvale, USA).
Description of the Functional Ca^2+ Influx Assay
20,000 CHO-hmGluR5 cells/well (Euroscreen, Gosselies, Belgium) are pipetted out into 96 well plates (BD Biosciences, Heidelberg, Germany, Ref. 356640, clear bottom, 96 well, poly-D-lysine) and incubated overnight in HBSS buffer (Gibco No. 14025-050) with the following additives: 10% FCS (GIBCO, 10270-106) and doxycycline (BD Biosciences Clontech 631311 600 ng/ml).
For the purpose of functional investigation, the cells were loaded with 2 μM Fluo-4 and 0.01 vol. % Pluronic F127 (Molecular Probes Europe BV, Leiden, Netherlands) in HBSS buffer (Hank's buffered saline solution, Gibco Invitrogen GmbH, Karlsruhe, Germany) with Probenicid (Sigma P8761, 0.69 mg/ml) for 30 min at 37° C.
The cells are then washed 3 times with washing buffer (HBSS buffer, Gibco No. 14025-050, with Probenicid (Sigma P8761, 0.69 [mg]/ml) and then resuspended with the same buffer to make up to 100 μl. After 15 min the plates are transferred for determination of Ca^2+ measurements in the presence of DHPG ((S)-3,5-dihydroxyphenylglycine, Tocris Biotrend Chemikalien GmbH, Cologne, Germany, final DHPG concentration: 10 μM) and in the presence or absence of test substances into a FLuorometric Imaging Plate Reader (FLIPR, Molecular Devices, Sunnyvale, Calif.).
Ca^2+-dependent fluorescence is measured before and after addition of test substances. Quantification proceeds by measuring the highest fluorescence intensity over time.
After recording a fluorescence baseline for 10 s, 50 μl of test substance solution (various test substance concentrations in HBSS buffer with 1% DMSO and 0.02% Tween 20, Sigma) are added and the fluorescence signal is measured for 6 min. Then, 50 μl of DHPG solution ((S)-3,5-dihydroxyphenylglycine, Tocris Biotrend Chemikalien GmbH, Cologne, Germany, final DHPG concentration: 10 μM) are added and Ca^2+ influx is simultaneously measured for 60 s. The final DMSO concentration amounts to 0.25% and the final Tween 20 content amounts to 0.005%. The data are analysed with Microsoft Excel and GraphPad Prism. The dose-response curves are calculated with non-linear regression and IC50 values are determined. Each data point is determined in triplicate and IC50 values are averaged from a minimum of 2 independent measurements.
Ki values are calculated using the following formula: Ki=IC50/(1+(AGconc/EC50)).
AGconc=10 μM; EC50 corresponds to the DHPG concentration which is necessary for the semimaximal influx of Ca^2+.

pain response in rats = test: Formaldehyde test in rats (phase 2, chronic pain component); type: in vivo
Protocol: III. Formaldehyde Test in Rats:
The formaldehyde test (Dubuisson, D. and Dennis, S. G., 1977, Pain, 4, 161-174) is a model of acute and chronic pain. A biphasic nociceptive response is induced in freely mobile test animals by a single formaldehyde injection into the dorsal side of a hind paw, said response being detected by the observation of three clearly distinguishable behaviour patterns. The response is in two phases: phase 1=immediate response (duration up to 10 min; paw shaking, licking), phase 2=late response (after a resting phase; likewise paw shaking, licking; duration up to 60 min). […] In the investigations presented here, it was the chronic pain component (phase 2) which was evaluated.
Formaldehyde is administered subcutaneously in a volume of 50 μl and a concentration of 5% into the dorsal side of the right hind paw of each animal. […] The specific behavioural changes, such as raising and shaking the paw, changes in weight bearing of the animal and biting and licking responses are observed and recorded over the observation period of 21 to 27 min after the formaldehyde injection. The various behaviours are summarised as a “pain rate” (PR), which is the calculated nociceptive response averaged over 3 min sub-intervals. […]

T2 sequence (P41594 21-1212): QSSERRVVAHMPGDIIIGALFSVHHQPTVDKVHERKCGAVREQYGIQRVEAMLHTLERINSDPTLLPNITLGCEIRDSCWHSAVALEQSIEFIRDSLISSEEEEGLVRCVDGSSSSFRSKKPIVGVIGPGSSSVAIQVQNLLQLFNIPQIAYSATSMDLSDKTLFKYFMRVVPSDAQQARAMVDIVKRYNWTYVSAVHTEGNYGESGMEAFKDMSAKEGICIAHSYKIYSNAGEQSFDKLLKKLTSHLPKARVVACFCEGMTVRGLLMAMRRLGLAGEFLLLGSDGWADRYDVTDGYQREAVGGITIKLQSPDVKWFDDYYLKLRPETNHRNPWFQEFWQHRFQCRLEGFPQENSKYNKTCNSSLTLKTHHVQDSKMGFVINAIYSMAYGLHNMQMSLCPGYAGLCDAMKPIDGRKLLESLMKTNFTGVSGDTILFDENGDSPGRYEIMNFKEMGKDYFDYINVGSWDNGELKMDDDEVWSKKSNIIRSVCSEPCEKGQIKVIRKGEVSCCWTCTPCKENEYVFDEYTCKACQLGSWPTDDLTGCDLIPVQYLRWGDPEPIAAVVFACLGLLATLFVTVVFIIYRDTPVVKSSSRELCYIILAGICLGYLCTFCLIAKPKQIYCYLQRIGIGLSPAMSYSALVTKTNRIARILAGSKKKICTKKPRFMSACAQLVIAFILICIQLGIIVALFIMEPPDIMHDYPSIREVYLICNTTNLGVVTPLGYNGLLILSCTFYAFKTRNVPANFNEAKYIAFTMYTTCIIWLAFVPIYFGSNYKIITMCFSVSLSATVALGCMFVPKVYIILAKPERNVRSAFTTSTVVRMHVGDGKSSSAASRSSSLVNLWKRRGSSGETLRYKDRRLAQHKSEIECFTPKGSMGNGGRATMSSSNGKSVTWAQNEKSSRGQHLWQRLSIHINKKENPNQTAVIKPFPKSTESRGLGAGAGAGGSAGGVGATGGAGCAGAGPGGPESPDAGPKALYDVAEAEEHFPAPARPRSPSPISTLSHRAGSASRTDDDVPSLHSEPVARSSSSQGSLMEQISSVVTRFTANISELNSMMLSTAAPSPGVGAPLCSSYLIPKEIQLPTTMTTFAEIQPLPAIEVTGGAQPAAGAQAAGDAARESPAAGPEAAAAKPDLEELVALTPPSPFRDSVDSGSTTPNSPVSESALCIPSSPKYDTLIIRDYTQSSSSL
T1 sequence (I3LUI7 19-1212): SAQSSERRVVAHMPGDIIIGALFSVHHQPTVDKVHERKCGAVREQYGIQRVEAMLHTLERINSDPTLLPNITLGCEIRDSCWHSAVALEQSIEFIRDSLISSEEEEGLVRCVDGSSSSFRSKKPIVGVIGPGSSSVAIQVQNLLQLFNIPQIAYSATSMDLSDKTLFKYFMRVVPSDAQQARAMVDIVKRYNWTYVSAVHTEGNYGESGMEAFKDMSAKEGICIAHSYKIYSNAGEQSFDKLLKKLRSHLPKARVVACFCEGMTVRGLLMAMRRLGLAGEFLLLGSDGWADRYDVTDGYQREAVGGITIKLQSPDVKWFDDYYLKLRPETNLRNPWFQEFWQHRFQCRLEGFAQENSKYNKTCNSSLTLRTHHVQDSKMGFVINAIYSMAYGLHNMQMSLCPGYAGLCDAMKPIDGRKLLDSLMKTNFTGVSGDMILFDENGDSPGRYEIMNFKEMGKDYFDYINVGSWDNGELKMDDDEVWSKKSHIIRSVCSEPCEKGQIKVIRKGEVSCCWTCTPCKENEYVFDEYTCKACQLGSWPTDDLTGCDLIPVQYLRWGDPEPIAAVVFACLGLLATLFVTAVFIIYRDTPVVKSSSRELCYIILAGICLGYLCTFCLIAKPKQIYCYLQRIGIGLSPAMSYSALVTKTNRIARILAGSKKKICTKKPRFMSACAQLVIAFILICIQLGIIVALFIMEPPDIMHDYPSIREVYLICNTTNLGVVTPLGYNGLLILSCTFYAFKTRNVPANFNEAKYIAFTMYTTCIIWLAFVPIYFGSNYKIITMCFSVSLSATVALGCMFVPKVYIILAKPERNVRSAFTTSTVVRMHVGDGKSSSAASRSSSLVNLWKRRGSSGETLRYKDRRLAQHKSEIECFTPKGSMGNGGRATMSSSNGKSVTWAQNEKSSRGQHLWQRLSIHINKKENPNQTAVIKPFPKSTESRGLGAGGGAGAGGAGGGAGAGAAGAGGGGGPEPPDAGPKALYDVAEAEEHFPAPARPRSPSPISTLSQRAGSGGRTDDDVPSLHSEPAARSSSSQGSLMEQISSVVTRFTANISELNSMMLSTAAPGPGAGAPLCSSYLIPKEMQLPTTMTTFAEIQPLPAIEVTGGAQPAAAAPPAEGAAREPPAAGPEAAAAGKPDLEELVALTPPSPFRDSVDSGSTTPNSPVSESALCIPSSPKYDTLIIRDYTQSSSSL

Compound: CC1c2ccccc2CCN1C(=O)C#Cc1cccc(Cl)c1 (stereo not shown) [Example 18, 2-(3-(3-chlorophenyl)-propiolyl)-1-methyl-1,2,3,4-tetrahydro-isoquinoline]
- IC50 (mGluR5 receptor (pig)): 5.4 nM
- Ki (mGluR5 receptor (human)): 1.2 nM
- ED50 (pain response in rats; iv, rat, i.v., 30 min before formaldehyde): 1.06 mg/kg
- Formaldehyde test (rat) per os Reduction in nociceptive behaviour relative to control at 10 mg/kg [%] (pain response in rats; per os, 10 mg/kg): 41%

Source: US20090075978A1, “SUBSTITUTED PROPIOLIC ACID AMIDES AND THEIR USE FOR PRODUCING DRUGS” (Grunenthal GmbH, priority 2005, published 2009)
